{"source": "patent US20040034201A1", "about": "“Enhanced affinity hyaluronan binding peptides” (priority 1997, published 2004)", "key": {"[1]": {"tested_on": "Ras-transformed 10T1/2 fibroblasts", "assay": "Apoptosis (Hoechst dye positive nuclei)", "type": "cell-based", "conditions": "100 ug/mL peptide or PD98059 50 ug/mL; 48 h", "method": "Ras-transformed 10T1/2 fibroblasts were grown to sub-confluence and were incubated with enhanced affinity hyaluronan binding peptide (shown in SEQ.ID.NO.:3) at a concentration of 100 ug/mL for 48 h. The cells were then stained with Hoechst dye using standard procedures and the percentage of apoptotic cells were determined by detection of positive stain in the nucleus of randomly selected cells."}, "[2]": {"tested_on": "10T1/2 fibroblasts", "assay": "Cell proliferation in response to serum (hemocytometer counts)", "type": "cell-based", "conditions": "100 ug/mL peptide or PD98059 50 ug/mL, 48 h", "method": "10T1/2 fibroblasts were grown to semi-confluence and were incubated with enhanced affinity hyaluronan binding peptide (shown in SEQ.ID.NO.:3) at a concentration of 100 ug/mL for 48 h. The cells were then trypsinized in 0.12% trypsin and counted using a hematocytometer. Released cells were stained with trypan blue and only viable cells were counted."}, "[3]": {"conditions": "peptide of WO 93/21312 with carboxy-terminal histidine; cited from earlier work"}, "[4]": {"assay": "HA binding of biotinylated peptides on HA-derivatized ELISA plates", "method": "A 15-mer phage display library was obtained from Chiron Inc. (CA). Hyaluronan (HA) was biotinylated and mixed with streptavidin-sepharose (Sigma) and washed. The Biotinylated HA was incubated with the phage library, then recovered with streptavidin-sepharose. The phage biotinylated HA-streptavidin -sepharose mixture was washed 4 times with phosphate buffered saline (PBS) and recovered phage were plated on a bacteria lawn in petri dishes. Clones were isolated and assessed for their ability to bind to HA. For the first screen, a total 75 clones were obtained after 4 cycles of screening. To assess the specificity of binding of these clones to HA, two approaches were taken. In the first, the ability of the clones to bind to biotin-sepharose or to streptavidin-sepharose were assessed. Clones were recovered from the bacteria lawn and mixed with biotin-sepharose and streptavidin-sepharose. Sepharose beads were washed 4 times with PBS and plated onto a bacteria lawn. In the second assay, clones were mixed with excess (100 ug/mL) HA (mean molecular weight: 700,000 daltons (Hyal, Ontario, Canada) together with biotinylated HA. After mixing the biotinylated HA was recovered with streptavidin-sepharose, washed as above and plated onto a bacteria lawn. Clones were sequenced in an automatic sequencer. A schematic diagram illustrating the isolation of enhanced affinity hyaluronan binding peptides from the 15-mer phage display library is shown in FIG. 1.\nEnhanced affinity HA binding peptides mimicking sequences obtained from the phage display library and scrambled peptides prepared from these sequences were tested for their HA binding properties. HA was derivatized to NUNC ELISA plates and biotinylated peptides were added to the plates and incubated for 2 h at room temperature. Plates were washed 4 times with PBS and then incubated with streptavidin-peroxidase for 1 h, washed, developed with hydrogen peroxide and their optical densities were determined. Controls were conducted using BSA-coated ELISA wells."}, "[5]": {"tested_on": "S1 macrophage cell line", "assay": "Chemotaxis in Boyden chamber, S1 macrophage cell line to C5a", "type": "cell-based", "conditions": "MTT blue, n = 3 replicates, the values are: MTT absorbance (chemotaxis)", "excerpt": "(§1) To assess the effects of enhanced affinity hyaluronan binding peptides and scrambled peptides on chemotaxis, a modified multi-well boyden chamber was utilized as described by Shi, Y. et al. (J. Immunol. Methods 164: 149-154, 1993)."}, "[6]": {"tested_on": "Human neutrophils", "assay": "Chemotaxis in Boyden chamber, human neutrophils to IL-8", "type": "cell-based", "conditions": "MTT blue, n = 3 replicates, the values are: MTT absorbance (chemotaxis)", "method": "(§2) Ras-transformed 10T1/2 or parental 10T1/2 fibroblasts (Egan, S. E. et al., Science 238: 202-205, 1987; Hardwick, C. et al., J. Biol. Chem. 117: 1343-1350, 1992) were cultured in DMEM containing 10% fetal bovine serum (FBS) and maintained in 5% CO2 humidified atmospheric condition. Every second passage, cells were maintained in 600 ug/mL G418 for one passage to select for maintenance of the mutant active ras-geneticin construct in cells. Cells were passaged at confluence and utilized under 20 passages. Macrophages were obtained from lung lavage 1 h after bleomycin insertion (Gelzleichter, T. R. et al., Fund. Appl. Toxicol. 30: 39-46, 1996) and used immediately in assays. Neutrophils were obtained from human blood as described and used immediately.\nas §1"}, "[7]": {"tested_on": "Rat alveolar macrophages", "assay": "Chemotaxis in Boyden chamber, rat alveolar macrophages to C5a", "type": "cell-based", "conditions": "MTT blue, n = 3 replicates, the values are: MTT absorbance (chemotaxis)", "method": "as §2, §1"}, "[8]": {"tested_on": "Fibroblast (ras transformed)", "assay": "Random locomotion by image analysis, ras-transformed 10T1/2 fibroblasts on fibronectin", "type": "cell-based", "method": "as §2\n(§3) For routine analysis of random locomotion, 10T1/2 fibroblasts or leukocytes were subcultured into culture flasks coated with 20 ug/mL fibronectin and maintained in DMEM plus 10% FBS for 24-48 h. The enhanced affinity hyaluronan binding peptide (shown in SEQ.ID.NO.:3) or scrambled peptides were incubated with the cultures at concentrations of 50 ng to 1 ug per mL. […] Filming was conducted for up to 24 h with images recorded every 20 min."}, "[9]": {"tested_on": "punch biopsy wound", "assay": "Rat punch biopsy model of skin repair", "type": "in vivo", "method": "Three-month-old female Fischer rats were anesthesized and subjected to […] full thickness punch biopsies. Wounds were filled with a sterile solution of 1% collagen type 1 gel containing either PBS alone, HA binding peptide (shown in SEQ.ID.NO.:3) (20 mg/mL) or scrambled peptide (20 mg/mL) that contained the same amino acids as the HA binding peptide but in a random order. 100 uL of the collagen solution was applied to the punch biopsy wound and allowed to gel over 20 min. The wounds were then covered with a protective plastic shield that was sewn into the skin. Wounds were recovered from euthenized rats with a 9 mm punch biopsy.\nRecovered punch biopsies were extracted with RIPA buffer and total protein was determined with a Biorad protein assay. Protein (50 ug) was loaded onto each lane and proteins were separated by electrophoresis on SDS-PAGE. Separated proteins were transferred to a nitrocellulose blot and the blot was processed for reactivity to anti-RHAMM antisera or anti-CD44 antibody (Dillon, P. W. et al., J. Surg. Res. 57: 170-173, 1994).\nMessenger RNA was isolated by Micro-FastTrack Kit (Invitrogen, San Diego, Calif.). The quality of RNA samples was confirmed by denaturing gel electrophoresis. Reverse transcription was performed by using First Strand cDNA Synthesis kit (Clontech, Polo Alco, Calif.). Briefly, 0.2 ug of mRNA was used to generate cDNA using oligo(dT) 18 primer. Samples containing 0.2 ug of mRNA per time point was heat-denatured in DEPC-treated water for 2 min at 70° C. and incubated at 42° C. for 1 h in a total volume of 20 uL of 20 pmol primers, 0.5 mM of each dNTP, 1 unit/uL of RNase inhibitor and 200 units/ug RNA of MMLV. The reaction was stopped by heating at 94° C. for 5 min and to destroy any DNase activity. The reaction mixture was diluted to a final volume of 100 uL and aliquots were stored at −80° C. until further use.\nTo distinguish between amplication of genomic DNA and complementary DNA, the primer pairs were designed to enclose at least one intron on the genomic sequences of RHAMM and beta-actin. […]"}, "[10]": {"tested_on": "Alveolar macrophages", "assay": "Random locomotion by image analysis, alveolar macrophages", "type": "cell-based", "conditions": "nuclear displacement by image analysis, n = 100 cells", "method": "as §2, §3"}}, "note": "Like-named read-outs stand apart in the source and are kept apart here.", "data": [{"compound": "COc1cccc(-c2cc(=O)c3ccccc3o2)c1N", "note": "[PD98059, reference compound]", "values": [{"measurement": "% Hoechst Positive Nuclei", "setting": "[1]", "result": "40 ± 2.5", "unit": "%"}, {"measurement": "Number of Cells (×10^6)", "setting": "[2]", "result": "0.5 ± 0.1 ×10^6"}]}, {"compound": "KLRSQLVHHH", "values": [{"measurement": "ability to bind HA", "setting": "[3]", "result": "unable to bind to HA"}]}, {"compound": "STMMSRSHKTRSCHH", "values": [{"measurement": "ability to bind HA", "setting": "[4]", "result": "can bind to HA"}]}, {"compound": "STMMSRSHKTRSHH", "values": [{"measurement": "Rate of Locomotion, chemotaxis", "setting": "[5]", "result": "0.238 ± 0.014"}, {"measurement": "Rate of Locomotion, chemotaxis", "setting": "[6]", "result": "0.088 ± 0.009"}, {"measurement": "% Hoechst Positive Nuclei", "setting": "[1]", "result": "4.9 ± 0.9", "unit": "%"}, {"measurement": "Rate of Locomotion, chemotaxis", "setting": "[7]", "result": "0.425 ± 0.028"}, {"measurement": "Concentrations optimal for inhibiting cell motility", "setting": "[8]; 10T1/2 fibroblasts or leukocytes, tested 50 ng to 1 ug per mL", "result": "50 to 100", "unit": "ng/mL"}, {"measurement": "Rate of Locomotion, random locomotion", "setting": "[8]; Fibroblast (ras transformed), nuclear displacement by image analysis, n = 100 cells", "result": "10.83 ± 1.07", "unit": "um/h"}, {"measurement": "Number of Cells (×10^6)", "setting": "[2]", "result": "2.4 ± 0.2 ×10^6"}, {"measurement": "ability to bind HA", "setting": "[4]", "result": "can bind to HA"}, {"measurement": "HA accumulation within the remodelling dermal layer", "setting": "[9]; at 24 h, biotinylated aggrecan staining", "result": "increase in HA accumulation"}, {"measurement": "keratinocyte resurfacing of the wound (re-epithelialization)", "setting": "[9]; rat, applied in collagen gel to the wound, 24 h after injury", "result": "inhibited keratinocyte resurfacing of the wound"}, {"measurement": "number of fibroblasts at the wound site", "setting": "[9]; rat, peptide 20 mg/mL in collagen gel", "result": "reduced the number of fibroblasts"}, {"measurement": "Rate of Locomotion, random locomotion", "setting": "[10]", "result": "3.24 ± 0.53", "unit": "um/h"}]}, {"compound": "STMMSRSHKTRSHHV [peptide of the Formula III with a valine residue at the C-terminal]", "values": [{"measurement": "ability to bind HA", "setting": "[4]", "result": "Enhanced affinity binding"}]}, {"compound": "TMTRPHFHKRQLVLS", "values": [{"measurement": "ability to bind HA", "setting": "[4]", "result": "Enhanced affinity binding"}]}]}
